Assay results as given in patent US9156845B2, “4-(substituted amino)-7H-pyrrolo[2,3-d] pyrimidines as LRRK2 inhibitors” (Pfizer Inc., priority 2012, dated 2015).

Legend:
ZAK = ZAK (Homo sapiens (Human), UniProt Q9NYL2); experiment: ActivX kinase probe assay (human PBMC); type: binding; details: ZAK, read-out: percent inhibition
CDC2 = CDC2 (Homo sapiens (Human), UniProt P06493); experiment: ActivX kinase probe assay (human PBMC); type: binding; details: CDC2, read-out: percent inhibition
NDR2 = NDR2 (Homo sapiens (Human), UniProt Q9Y2H1); experiment: ActivX kinase probe assay (human PBMC); type: binding; details: NDR2, read-out: percent inhibition
PIK3CG = PIK3CG (Homo sapiens (Human), UniProt P48736); experiment: ActivX kinase probe assay (human PBMC); type: binding; details: PIK3CG, read-out: percent inhibition
LRRK2 = LRRK2 (Homo sapiens (Human), UniProt Q5S007); experiment: ActivX kinase probe assay (human PBMC); type: binding; details: 0.1 μM, read-out: percent inhibition
PIP4K2A = PIP4K2A (Homo sapiens (Human), UniProt P48426); experiment: ActivX kinase probe assay (human PBMC); type: binding; details: PIP4K2A, read-out: percent inhibition
GCN2 = GCN2 (Homo sapiens (Human), UniProt Q9P2K8); experiment: ActivX kinase probe assay (human PBMC); type: binding; details: GCN2, read-out: percent inhibition
CaMK2d = CaMK2d (Homo sapiens (Human), UniProt Q13557); experiment: ActivX kinase probe assay (human PBMC); type: binding; details: CaMK2d, read-out: percent inhibition
DGKA = DGKA (Homo sapiens (Human), UniProt P23743); experiment: ActivX kinase probe assay (human PBMC); type: binding; details: DGKA, read-out: percent inhibition
SGK3 = SGK3 (Homo sapiens (Human), UniProt Q96BR1); experiment: ActivX kinase probe assay (human PBMC); type: binding; details: SGK3, read-out: percent inhibition
RSK1, RSK2, RSK3 domain1 = experiment: ActivX kinase probe assay (human PBMC); type: binding
RSK1 domain2 = RSK1 domain2 (Homo sapiens (Human), UniProt Q15418); experiment: ActivX kinase probe assay (human PBMC); type: binding; details: RSK1 domain2, read-out: percent inhibition
PRPK = PRPK (Homo sapiens (Human), UniProt Q96S44); experiment: ActivX kinase probe assay (human PBMC); type: binding; details: read-out: percent inhibition
Experimental: Certain of the compounds of the present invention were assessed for kinase selectivity using a commercially available ActiveX targeted kinase probe in which the tissue employed was human peripheral blood mononuclear cells (PBMC). The test compounds were provided to ActivX Biosciences, Inc., 11025 North Torrey Pines Road, Suite 120; LaJolla, Calif., USA 92037. The compounds were run in the ActivX proprietary kinase assay and results were obtained at compound test concentrations of 1 μM (columns 2, 4 and 6) and 0.1 μM (columns 3, 5 and 7). The results as percent inhibition obtained for the compounds of Examples 1, 4 and 217 are provided below in Table 3.

ULK3 = ULK3 (Homo sapiens (Human), UniProt Q6PHR2); experiment: ActivX kinase probe assay (human PBMC); type: binding; details: ULK3, read-out: percent inhibition
CaMK2g = CaMK2g (Homo sapiens (Human), UniProt Q13555); experiment: ActivX kinase probe assay (human PBMC); type: binding; details: CaMK2g, read-out: percent inhibition
KHS1 = KHS1 (Homo sapiens (Human), UniProt Q9Y4K4); experiment: ActivX kinase probe assay (human PBMC); type: binding; details: KHS1, read-out: percent inhibition
ZC2/TNIK = ZC2/TNIK (Homo sapiens (Human), UniProt Q9UKE5); experiment: ActivX kinase probe assay (human PBMC); type: binding; details: ZC2/TNIK, read-out: percent inhibition
FES = FES (Homo sapiens (Human), UniProt P07332); experiment: ActivX kinase probe assay (human PBMC); type: binding; details: FES, read-out: percent inhibition
SYK = SYK (Homo sapiens (Human), UniProt P43405); experiment: ActivX kinase probe assay (human PBMC); type: binding; details: SYK, read-out: percent inhibition
MSK1 domain1 = MSK1 domain1 (Homo sapiens (Human), UniProt O75582); experiment: ActivX kinase probe assay (human PBMC); type: binding; details: MSK1 domain1, read-out: percent inhibition
MAST3 = MAST3 (Homo sapiens (Human), UniProt O60307); experiment: ActivX kinase probe assay (human PBMC); type: binding; details: MAST3, read-out: percent inhibition
IRAK1 = IRAK1 (Homo sapiens (Human), UniProt P51617); experiment: ActivX kinase probe assay (human PBMC); type: binding; details: IRAK1, read-out: percent inhibition
MAP2K1, MAP2K2 = experiment: ActivX kinase probe assay (human PBMC); type: binding
SMG1 = SMG1 (Homo sapiens (Human), UniProt Q96Q15); experiment: ActivX kinase probe assay (human PBMC); type: binding; details: SMG1, read-out: percent inhibition
CDK2 = CDK2 (Homo sapiens (Human), UniProt P24941); experiment: ActivX kinase probe assay (human PBMC); type: binding; details: CDK2, read-out: percent inhibition
RSK2 domain1 = RSK2 domain1 (Homo sapiens (Human), UniProt P51812); experiment: ActivX kinase probe assay (human PBMC); type: binding; details: RSK2 domain1, read-out: percent inhibition
[1] = target: GST-tagged truncated LRRK2 (Homo sapiens (Human), UniProt Q5S007); experiment: LRRK2 Lantha Screen kinase assay; type: biochemical; details: geometric mean of 2-5 determinations unless otherwise indicated (a: >=6 determinations; b: single determination); read-out: LRRK2 WT IC50
MAP3K3 = MAP3K3 (Homo sapiens (Human), UniProt Q99759); experiment: ActivX kinase probe assay (human PBMC); type: binding; details: MAP3K3, read-out: percent inhibition
[2] = system: ZC1/HGK, ZC2/TNIK, ZC3/MINK; experiment: ActivX kinase probe assay (human PBMC); type: binding
PKD2 = PKD2 (Homo sapiens (Human), UniProt Q9BZL6); experiment: ActivX kinase probe assay (human PBMC); type: binding; details: PKD2, read-out: percent inhibition
p70S6Kb = p70S6Kb (Homo sapiens (Human), UniProt Q9UBS0); experiment: ActivX kinase probe assay (human PBMC); type: binding; details: p70S6Kb, read-out: percent inhibition

Chain of ZC2/TNIK (Q9UKE5 whole entry): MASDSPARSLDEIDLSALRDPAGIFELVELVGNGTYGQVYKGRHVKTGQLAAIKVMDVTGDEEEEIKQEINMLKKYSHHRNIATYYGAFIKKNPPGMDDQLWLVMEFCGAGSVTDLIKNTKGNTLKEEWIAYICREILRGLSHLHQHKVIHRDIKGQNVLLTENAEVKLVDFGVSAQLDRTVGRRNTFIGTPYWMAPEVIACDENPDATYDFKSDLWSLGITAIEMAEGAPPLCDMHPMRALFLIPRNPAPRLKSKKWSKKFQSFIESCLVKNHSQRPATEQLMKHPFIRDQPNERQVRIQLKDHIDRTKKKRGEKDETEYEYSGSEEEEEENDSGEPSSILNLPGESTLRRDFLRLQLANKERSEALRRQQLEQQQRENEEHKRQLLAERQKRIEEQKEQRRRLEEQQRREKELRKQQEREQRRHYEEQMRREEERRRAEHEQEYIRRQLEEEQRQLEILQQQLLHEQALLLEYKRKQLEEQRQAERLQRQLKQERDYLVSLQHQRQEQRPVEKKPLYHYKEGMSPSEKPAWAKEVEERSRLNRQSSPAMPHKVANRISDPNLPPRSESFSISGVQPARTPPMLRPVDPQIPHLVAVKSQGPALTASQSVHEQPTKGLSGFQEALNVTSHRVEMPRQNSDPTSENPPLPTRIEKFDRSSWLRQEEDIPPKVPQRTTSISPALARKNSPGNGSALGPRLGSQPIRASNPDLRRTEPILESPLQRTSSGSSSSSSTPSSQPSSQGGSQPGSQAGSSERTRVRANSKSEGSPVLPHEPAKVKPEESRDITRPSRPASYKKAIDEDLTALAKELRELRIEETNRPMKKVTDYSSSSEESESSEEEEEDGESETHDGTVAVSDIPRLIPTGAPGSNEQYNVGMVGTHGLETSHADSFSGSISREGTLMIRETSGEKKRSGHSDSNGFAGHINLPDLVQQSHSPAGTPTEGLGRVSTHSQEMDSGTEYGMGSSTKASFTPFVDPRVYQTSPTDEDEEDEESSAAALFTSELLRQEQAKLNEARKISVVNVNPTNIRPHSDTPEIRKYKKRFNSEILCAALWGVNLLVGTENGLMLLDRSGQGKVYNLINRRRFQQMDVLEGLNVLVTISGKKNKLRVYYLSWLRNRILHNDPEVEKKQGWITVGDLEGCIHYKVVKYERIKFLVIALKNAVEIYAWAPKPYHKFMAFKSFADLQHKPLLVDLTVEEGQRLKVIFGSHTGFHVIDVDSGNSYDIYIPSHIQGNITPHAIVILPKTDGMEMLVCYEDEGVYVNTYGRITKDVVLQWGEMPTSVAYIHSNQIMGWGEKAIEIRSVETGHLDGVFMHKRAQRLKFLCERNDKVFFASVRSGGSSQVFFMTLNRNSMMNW
Chain of PKD2 (Q9BZL6 whole entry): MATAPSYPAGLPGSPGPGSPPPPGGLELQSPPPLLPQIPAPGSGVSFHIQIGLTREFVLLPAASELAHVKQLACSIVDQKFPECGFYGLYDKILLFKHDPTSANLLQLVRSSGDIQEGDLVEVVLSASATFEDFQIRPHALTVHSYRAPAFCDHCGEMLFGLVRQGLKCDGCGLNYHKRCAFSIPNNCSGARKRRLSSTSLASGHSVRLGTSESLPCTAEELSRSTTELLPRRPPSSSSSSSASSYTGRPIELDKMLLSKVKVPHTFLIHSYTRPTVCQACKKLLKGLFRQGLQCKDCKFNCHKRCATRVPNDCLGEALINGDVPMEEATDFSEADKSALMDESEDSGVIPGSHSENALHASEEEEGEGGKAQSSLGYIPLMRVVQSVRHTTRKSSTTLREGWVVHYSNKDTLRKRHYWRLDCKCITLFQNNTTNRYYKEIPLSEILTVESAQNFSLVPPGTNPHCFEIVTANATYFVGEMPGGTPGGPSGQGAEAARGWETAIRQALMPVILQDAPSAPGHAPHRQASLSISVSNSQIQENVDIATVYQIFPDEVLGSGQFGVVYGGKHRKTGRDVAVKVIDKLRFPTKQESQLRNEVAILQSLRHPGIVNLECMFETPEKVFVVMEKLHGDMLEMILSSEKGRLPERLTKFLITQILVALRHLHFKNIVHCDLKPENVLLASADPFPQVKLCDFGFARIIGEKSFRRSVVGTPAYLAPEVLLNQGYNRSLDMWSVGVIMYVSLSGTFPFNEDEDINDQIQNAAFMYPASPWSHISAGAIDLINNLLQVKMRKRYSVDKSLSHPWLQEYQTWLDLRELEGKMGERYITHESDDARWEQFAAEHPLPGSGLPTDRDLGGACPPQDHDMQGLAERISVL
Chain of CDC2 (P06493 whole entry): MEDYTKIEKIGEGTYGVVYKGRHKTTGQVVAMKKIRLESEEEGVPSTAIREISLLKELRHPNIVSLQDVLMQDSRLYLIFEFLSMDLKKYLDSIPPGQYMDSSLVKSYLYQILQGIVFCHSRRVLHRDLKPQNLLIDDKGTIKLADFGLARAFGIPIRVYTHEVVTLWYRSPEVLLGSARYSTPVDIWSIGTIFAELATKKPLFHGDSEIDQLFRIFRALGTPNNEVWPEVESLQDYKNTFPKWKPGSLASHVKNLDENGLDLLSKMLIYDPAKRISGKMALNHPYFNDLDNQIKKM
Chain of FES (P07332 whole entry): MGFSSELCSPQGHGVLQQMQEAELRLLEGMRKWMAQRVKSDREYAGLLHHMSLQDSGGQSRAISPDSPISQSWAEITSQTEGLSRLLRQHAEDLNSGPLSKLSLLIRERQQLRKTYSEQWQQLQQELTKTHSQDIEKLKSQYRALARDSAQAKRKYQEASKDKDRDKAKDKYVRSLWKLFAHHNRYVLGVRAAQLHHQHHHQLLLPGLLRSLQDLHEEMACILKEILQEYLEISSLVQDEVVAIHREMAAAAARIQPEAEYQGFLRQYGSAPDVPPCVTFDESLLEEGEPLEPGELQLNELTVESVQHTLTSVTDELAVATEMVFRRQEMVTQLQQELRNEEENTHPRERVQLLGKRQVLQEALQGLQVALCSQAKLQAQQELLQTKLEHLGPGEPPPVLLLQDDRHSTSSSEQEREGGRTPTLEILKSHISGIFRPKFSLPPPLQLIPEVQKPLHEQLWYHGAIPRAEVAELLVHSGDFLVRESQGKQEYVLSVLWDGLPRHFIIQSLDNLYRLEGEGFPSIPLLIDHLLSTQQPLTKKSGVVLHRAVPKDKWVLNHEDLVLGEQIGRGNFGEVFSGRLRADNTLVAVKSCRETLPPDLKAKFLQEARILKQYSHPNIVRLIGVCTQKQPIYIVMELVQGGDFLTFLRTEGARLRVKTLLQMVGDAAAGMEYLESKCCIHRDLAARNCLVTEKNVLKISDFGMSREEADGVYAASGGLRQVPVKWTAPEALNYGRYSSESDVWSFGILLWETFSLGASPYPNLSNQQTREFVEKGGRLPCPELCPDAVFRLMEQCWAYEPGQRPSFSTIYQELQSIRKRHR
Chain of RSK1 domain2 (Q15418 whole entry, the tested form may be a part): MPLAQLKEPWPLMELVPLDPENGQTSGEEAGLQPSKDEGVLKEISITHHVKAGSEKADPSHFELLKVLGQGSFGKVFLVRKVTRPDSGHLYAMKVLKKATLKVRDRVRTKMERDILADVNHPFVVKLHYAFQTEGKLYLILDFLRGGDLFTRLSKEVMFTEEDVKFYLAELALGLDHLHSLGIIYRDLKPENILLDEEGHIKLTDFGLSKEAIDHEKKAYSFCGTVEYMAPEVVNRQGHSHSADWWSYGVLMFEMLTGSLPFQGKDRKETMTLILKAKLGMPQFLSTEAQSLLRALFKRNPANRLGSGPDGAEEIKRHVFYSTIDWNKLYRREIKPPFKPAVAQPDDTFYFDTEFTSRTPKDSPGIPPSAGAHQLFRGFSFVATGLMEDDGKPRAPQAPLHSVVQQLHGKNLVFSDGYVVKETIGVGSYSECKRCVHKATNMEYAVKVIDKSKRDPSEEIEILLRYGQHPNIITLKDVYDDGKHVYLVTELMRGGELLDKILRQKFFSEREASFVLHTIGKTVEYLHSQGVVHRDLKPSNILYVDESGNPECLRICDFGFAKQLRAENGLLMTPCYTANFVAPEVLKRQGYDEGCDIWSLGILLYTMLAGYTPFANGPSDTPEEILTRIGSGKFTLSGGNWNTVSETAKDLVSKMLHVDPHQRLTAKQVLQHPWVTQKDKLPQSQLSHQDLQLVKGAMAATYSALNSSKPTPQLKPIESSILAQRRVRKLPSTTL
Chain of NDR2 (Q9Y2H1 whole entry): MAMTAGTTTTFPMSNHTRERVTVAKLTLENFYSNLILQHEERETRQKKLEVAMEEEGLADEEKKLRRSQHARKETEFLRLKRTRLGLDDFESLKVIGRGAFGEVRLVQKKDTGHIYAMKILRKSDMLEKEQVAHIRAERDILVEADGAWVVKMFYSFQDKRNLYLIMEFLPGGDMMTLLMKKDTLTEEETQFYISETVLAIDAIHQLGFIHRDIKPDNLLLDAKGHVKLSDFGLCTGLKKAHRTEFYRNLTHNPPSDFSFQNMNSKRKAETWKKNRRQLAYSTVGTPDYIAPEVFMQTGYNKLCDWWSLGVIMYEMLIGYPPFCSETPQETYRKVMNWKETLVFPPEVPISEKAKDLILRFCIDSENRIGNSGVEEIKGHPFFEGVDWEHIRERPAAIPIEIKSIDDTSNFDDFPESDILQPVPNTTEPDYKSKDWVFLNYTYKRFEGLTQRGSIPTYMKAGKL
Chain of SGK3 (Q96BR1 whole entry, the tested form may be a part): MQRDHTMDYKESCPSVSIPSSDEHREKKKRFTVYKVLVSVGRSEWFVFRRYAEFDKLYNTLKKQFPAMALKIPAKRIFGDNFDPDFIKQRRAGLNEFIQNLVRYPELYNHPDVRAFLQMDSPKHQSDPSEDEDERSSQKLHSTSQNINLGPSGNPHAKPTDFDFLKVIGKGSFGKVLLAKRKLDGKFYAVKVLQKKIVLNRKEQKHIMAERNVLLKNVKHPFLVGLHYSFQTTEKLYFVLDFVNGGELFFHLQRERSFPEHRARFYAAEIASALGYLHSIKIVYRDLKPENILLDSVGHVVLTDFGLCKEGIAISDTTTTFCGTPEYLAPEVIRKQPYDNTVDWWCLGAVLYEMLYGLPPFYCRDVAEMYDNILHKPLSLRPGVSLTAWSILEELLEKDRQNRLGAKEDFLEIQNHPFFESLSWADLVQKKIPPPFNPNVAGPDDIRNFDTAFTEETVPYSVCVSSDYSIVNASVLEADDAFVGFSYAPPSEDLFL

Cn1cc(-c2c[nH]c3ncnc(N4CCOCC4)c23)cc1C#N [Example 217, 1-methyl-4-[4-(morpholin-4-yl)-7H-pyrrolo[2,3-d]pyrimidin-5-yl]-1H-pyrrole-2-carbonitrile]
inhibition at 0.1 µM (ZAK; 0.1 μM): -2.9%
inhibition at 1 µM (ZAK; 1 μM): -1.2%
inhibition at 0.1 µM (CDC2; 0.1 μM): 28.7%
inhibition at 1 µM (CDC2; 1 μM): 24.4%
inhibition at 0.1 µM (NDR2; 0.1 μM): 28.9%
inhibition at 1 µM (NDR2; 1 μM): -6%
inhibition at 0.1 µM (PIK3CG; 0.1 μM): -3.4%
inhibition at 1 µM (PIK3CG; 1 μM): -22%
inhibition at 0.1 µM (LRRK2): 88.4%
inhibition at 0.1 µM (PIP4K2A; 0.1 μM): 7.8%
inhibition at 1 µM (PIP4K2A; 1 μM): 8.2%
inhibition at 0.1 µM (GCN2; 0.1 μM): -7.7%
inhibition at 1 µM (GCN2; 1 μM): -3.1%
inhibition at 0.1 µM (CaMK2d; 0.1 μM): 9.8%
inhibition at 1 µM (CaMK2d; 1 μM): 16.1%
inhibition at 0.1 µM (DGKA; 0.1 μM): -2.8%
inhibition at 1 µM (DGKA; 1 μM): 4.7%
inhibition at 0.1 µM (SGK3; 0.1 μM): 8.5%
inhibition at 1 µM (SGK3; 1 μM): 16.9%
percent inhibition (RSK1, RSK2, RSK3 domain1; 0.1 μM): 5.0%
percent inhibition (RSK1, RSK2, RSK3 domain1; 1 μM): 48.5%
inhibition at 0.1 µM (RSK1 domain2; 0.1 μM): -3.4%
inhibition at 1 µM (RSK1 domain2; 1 μM): 5%
inhibition at 0.1 µM (PRPK; 0.1 μM): 2.6%
inhibition at 1 µM (PRPK; 1 μM): 12.5%
inhibition at 0.1 µM (ULK3; 0.1 μM): -8.6%
inhibition at 1 µM (ULK3; 1 μM): 17.4%
inhibition at 0.1 µM (CaMK2g; 0.1 μM): 4.3%
inhibition at 1 µM (CaMK2g; 1 μM): 18.7%
inhibition at 0.1 µM (KHS1; 0.1 μM): 10.7%
inhibition at 1 µM (KHS1; 1 μM): 7.6%
inhibition at 0.1 µM (ZC2/TNIK; 0.1 μM): -10.7%
inhibition at 1 µM (ZC2/TNIK; 1 μM): 3.9%
inhibition at 0.1 µM (FES; 0.1 μM): 8.4%
inhibition at 1 µM (FES; 1 μM): 6.2%
inhibition at 0.1 µM (SYK; 0.1 μM): -2%
inhibition at 1 µM (SYK; 1 μM): -5.1%
inhibition at 0.1 µM (MSK1 domain1; 0.1 μM): -12.1%
inhibition at 1 µM (MSK1 domain1; 1 μM): -2.2%
inhibition at 0.1 µM (MAST3; 0.1 μM): -11.7%
inhibition at 1 µM (MAST3; 1 μM): 0.4%
inhibition at 0.1 µM (IRAK1; 0.1 μM): -1.7%
inhibition at 1 µM (IRAK1; 1 μM): 7.5%
percent inhibition (MAP2K1, MAP2K2; 0.1 μM): 10.9%
percent inhibition (MAP2K1, MAP2K2; 1 μM): −2.6%
inhibition at 0.1 µM (SMG1; 0.1 μM): 1.5%
inhibition at 1 µM (SMG1; 1 μM): -6.1%
inhibition at 0.1 µM (CDK2; 0.1 μM): 3.6%
inhibition at 1 µM (CDK2; 1 μM): 16.5%
inhibition at 0.1 µM (RSK2 domain1; 0.1 μM): 13.2%
inhibition at 1 µM (RSK2 domain1; 1 μM): 61.6%
IC50 [1]: 6.37 nM
inhibition at 0.1 µM (MAP3K3; 0.1 μM): -3.4%
inhibition at 1 µM (MAP3K3; 1 μM): -6.7%
percent inhibition ([2]; 0.1 μM): −1.2%
percent inhibition ([2]; 1 μM): 7.7%
inhibition at 0.1 µM (PKD2; 0.1 μM): 5.8%
inhibition at 1 µM (PKD2; 1 μM): 4.5%
inhibition at 0.1 µM (p70S6Kb; 0.1 μM): -2.2%
inhibition at 1 µM (p70S6Kb; 1 μM): -16.7%
